Experimental data from patent US11649242B2, “Pyrrolopyrrole compositions as pyruvate kinase (PKR) activators” (FORMA Therapeutics, Inc., priority 2017, dated 2023).

Assays:
Assay type in all cases: biochemical
PKR(R510Q) = PKR(R510Q) (Homo sapiens, UniProt P30613, R510Q); test: Luminescence Assay Protocol (Kinase Glo Plus), PKR(R510Q/without FBP); settings: PKRR510Q, without FBP; for activation at 1.54 µM: compound 1.54 μM, read-out: F - AC50 LUM KGP woFBP % Fold @ 1.54 μM mean; for AC50: gmean, read-out: D - AC50 LUM KGP woFBP AC50 μM gmean; for Emax: read-out: E - AC50 LUM KGP woFBP MAX % FOLD mean
Method: (§1) Example 47: PKR(Wt/without FBP), PKR(G332S/with FBP), PKR(R510Q/without FBP)
(§2) The phosphorylation of Adenosine-5′-diphosphate (ADP) by various mutants of PKR was determined by the Kinase Glo Plus Assay (Promega) in the presence or absence of FBP [D-Fructose-1,6-diphosphate; BOC Sciences, CAS: 81028-91-3] as follows. Unless otherwise indicated, all reagents were purchased from Sigma-Aldrich. All reagents were prepared in buffer containing 50 mM Tris-HCl, 100 mM KCl, 5 mM MgCl2, and 0.01% Triton X100, 0.03% BSA, and 1 mM DTT. Enzyme and PEP [Phospho(enol) pyruvic acid] were added at 2× to all wells of an assay-ready plate containing serial dilutions of test compounds or DMSO vehicle. Final enzyme concentrations for PKR(wt), PKR(R510Q), and PKR(G332S) were 0.8 nM, 0.8 nM, and 10 nM respectively. Final PEP concentration was 100 μM. The Enzyme/PEP mixture was incubated with compounds for 30 minutes at RT before the assay was initiated with the addition of 2×ADP [Adenosine-5′-diphosphate] and KinaseGloPlus. Final concentration of ADP was 100 μM. […] For assays containing FBP, that reagent is added at 30 μM upon reaction initiation. Reactions were allowed to progress for 45 minutes at RT until luminescence was recorded by the BMG PHERAstar FS Multilabel Reader. All compounds were tested in triplicate at concentrations ranging from 42.5 μM to 2.2 nM in 0.83% DMSO.
(§3) Luminescence values were converted to % Fold increase by normalizing to the average of the DMSO control and multiplying by 100. Max, min, slope and AC50 were determined by the standard four parameter fit algorithm of ActivityBase XE Runner. Compounds were evaluated with three parameters—AC50, MAX % Fold, and % Fold@1.54 μM (FIG. 1). The AC50 value for a compound is the concentration […] corresponding to the midway between the maximum and minimum values of the four parameter logistic curve fit (i.e., at which the % fold increase along the four parameter logistic curve fit is halfway between MAX % Fold and MIN % Fold (% Fold Midpoint)), MAX % Fold is the highest fold increase observed at any concentration of compound, and % Fold@1.54 μM is the fold increase at a compound concentration of 1.54 μM. The parameter % Fold@1.54 μM was selected to capture elements of both the AC50 and MAX % Fold and to provide a ranking based on both potency and effect. The compound concentration of 1.54 μM was chosen as one that can optimally differentiate the set of compounds based on the range of activities observed.
(§4) As set forth in Tables 6 and 7 below, AC50 values (columns A, D, G) are defined as follows: ≤0.1 μM (+++); >0.1 μM and ≤1.0 μM (++); >1.0 μM and ≤40 μM (+); >40 μM (0). Max % FOLD values (columns B, E, H) are defined as follows: ≤75% (+); >75% and ≤250% (++); >250% and ≤500% (+++). % Fold@1.54 μM values (columns C, F, I) are defined as follows: ≤75% (+); >75% and ≤250% (++); >250% and ≤500% (+++).

PKR(wt) = PKR(wt) (Homo sapiens, UniProt P30613); test: Luminescence Assay Protocol (Kinase Glo Plus), PKR(Wt/without FBP); settings: without FBP; for activation at 1.54 µM: compound 1.54 μM, read-out: I - AC50 LUM KGP woFBP % Fold @ 1.54 μM mean; for AC50: gmean, read-out: G - AC50 LUM KGP woFBP AC50 μM gmean; for Emax: highest % fold increase at any concentration, read-out: H - AC50 LUM KGP woFBP MAX % FOLD mean
Method: as §1, §2, §3, §4

PKR(G332S) = PKR(G332S) (Homo sapiens, UniProt P30613, G332S); test: Luminescence Assay Protocol (Kinase Glo Plus), PKR(G332S/with FBP); settings: PKRG332S, with FBP; for activation at 1.54 µM: compound 1.54 μM, read-out: C - AC50 LUM KGP FBP % Fold @ 1.54 μM mean; for AC50: gmean, read-out: A - AC50 LUM KGP FBP AC50 μM gmean; for Emax: highest % fold increase at any concentration, read-out: B - AC50 LUM KGP FBP MAX % FOLD mean
Method: as §1, §2, §3, §4

[1] = highest % fold increase at any concentration

Chain of PKR(R510Q) (P30613 whole entry R510Q): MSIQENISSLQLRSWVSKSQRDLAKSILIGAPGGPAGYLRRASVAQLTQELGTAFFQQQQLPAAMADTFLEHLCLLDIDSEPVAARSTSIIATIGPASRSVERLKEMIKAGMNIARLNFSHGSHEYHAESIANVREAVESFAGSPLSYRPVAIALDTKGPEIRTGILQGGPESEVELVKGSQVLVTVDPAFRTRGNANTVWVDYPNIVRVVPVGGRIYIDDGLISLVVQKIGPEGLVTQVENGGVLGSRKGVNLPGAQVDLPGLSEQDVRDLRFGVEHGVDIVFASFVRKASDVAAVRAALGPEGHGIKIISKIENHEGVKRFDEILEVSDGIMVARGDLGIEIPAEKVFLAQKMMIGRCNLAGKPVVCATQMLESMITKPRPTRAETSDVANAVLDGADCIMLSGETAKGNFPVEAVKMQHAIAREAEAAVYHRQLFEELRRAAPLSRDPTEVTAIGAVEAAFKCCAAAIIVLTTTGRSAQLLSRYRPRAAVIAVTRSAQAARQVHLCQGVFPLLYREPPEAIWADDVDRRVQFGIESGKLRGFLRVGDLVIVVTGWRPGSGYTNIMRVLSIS
Chain of PKR(G332S) (P30613 whole entry G332S): as the sequence (P30613 whole entry R510Q) above, with G332S, Q510R counted along it
Chain of PKR(wt) (P30613 whole entry): as the sequence (P30613 whole entry R510Q) above, with Q510R counted along it

SMILES | activation at 1.54 µM (PKR(R510Q)) | AC50 (PKR(R510Q)) | Emax (PKR(R510Q); [1]) | activation at 1.54 µM (PKR(wt)) | AC50 (PKR(wt)) | Emax (PKR(wt)) | E - AC50 LUM KGP woFBP MAX % FOLD mean (PKR(R510Q); [1]) | activation at 1.54 µM (PKR(G332S)) | AC50 (PKR(G332S)) | Emax (PKR(G332S))
O=C([C@@H]1CCOC1)N1CC2=C(C1)CN(S(=O)(=O)c1ccc3occc3c1)C2 [Example 12, (R)-(5-(benzofuran-5-ylsulfonyl)-3,4,5,6-tetrahydropyrrolo[3,4-c]pyrrol-2(1H)-yl)(tetrahydrofuran-3-yl)methanone] | – | – | – | 250 to 500% | 0.1 to 1 µM | 250 to 500% | – | – | – | –
COCC1(C(=O)N2CC3=C(C2)CN(S(=O)(=O)c2ccc4occc4c2)C3)CC1 [Example 17, (5-(benzofuran-5-ylsulfonyl)-3,4,5,6-tetrahydropyrrolo[3,4-c]pyrrol-2(1H)-yl)(1-(methoxymethyl)cyclopropyl)methanone] | – | – | – | 75 to 250% | 0.1 to 1 µM | 75 to 250% | – | – | – | –
Cc1nc2ccc(S(=O)(=O)N3CC4=C(CN(C(=O)C(C)(C)CO)C4)C3)cc2o1 [Example 21, 3-hydroxy-2,2-dimethyl-1-(5-((2-methylbenzo[d]oxazol-6-yl)sulfonyl)-3,4,5,6-tetrahydropyrrolo[3,4-c]pyrrol-2(1H)-yl)propan-1-one] | – | – | – | 75 to 250% | 1 to 40 µM | 75 to 250% | – | – | – | –
CC(C)(CO)C(=O)N1CC2=C(C1)CN(S(=O)(=O)c1ccc3occc3c1)C2 [Example 9, 1-(5-(benzofuran-5-ylsulfonyl)-3,4,5,6-tetrahydropyrrolo[3,4-c]pyrrol-2(1H)-yl)-3-hydroxy-2,2-dimethylpropan-1-one] | – | – | – | 75 to 250% | ≤ 0.1 µM | 75 to 250% | – | – | – | –
CC(CO)(CO)C(=O)N1CC2=C(C1)CN(S(=O)(=O)c1ccc3occc3c1)C2 [Example 10, 1-(5-(benzofuran-5-ylsulfonyl)-3,4,5,6-tetrahydropyrrolo[3,4-c]pyrrol-2(1H)-yl)-3-hydroxy-2-(hydroxymethyl)-2-methylpropan-1-one] | – | – | – | 75 to 250% | ≤ 0.1 µM | 250 to 500% | – | – | – | –
O=C(C1COCCN1)N1CC2=C(C1)CN(S(=O)(=O)c1ccc3ncsc3c1)C2 (stereo not shown) [Example 56, (5-(benzo[d]thiazol-6-ylsulfonyl)-3,4,5,6-tetrahydropyrrolo[3,4-c]pyrrol-2(1H)-yl)(morpholin-3-yl)methanone] | 75 to 250% | 1 to 40 µM | 75 to 250% | – | – | – | – | 75 to 250% | > 40 µM | 75 to 250%
CC(C)(O)CC(=O)N1CC2=C(C1)CN(S(=O)(=O)c1ccc3occc3c1)C2 [Example 25, 1-(5-(benzofuran-5-ylsulfonyl)-3,4,5,6-tetrahydropyrrolo[3,4-c]pyrrol-2(1H)-yl)-3-hydroxy-3-methylbutan-1-one] | – | – | – | 75 to 250% | 0.1 to 1 µM | 250 to 500% | – | – | – | –
CCC(CO)(CO)C(=O)N1CC2=C(C1)CN(S(=O)(=O)c1ccc3occc3c1)C2 [Example 11, 1-(5-(benzofuran-5-ylsulfonyl)-3,4,5,6-tetrahydropyrrolo[3,4-c]pyrrol-2(1H)-yl)-2,2-bis(hydroxymethyl)butan-1-one] | – | – | – | 75 to 250% | 0.1 to 1 µM | 250 to 500% | – | – | – | –
O=C([C@H]1CCOC1)N1CC2=C(C1)CN(S(=O)(=O)c1ccc3occc3c1)C2 [Example 13, (S)-(5-(benzofuran-5-ylsulfonyl)-3,4,5,6-tetrahydropyrrolo[3,4-c]pyrrol-2(1H)-yl)(tetrahydrofuran-3-yl)methanone] | – | – | – | 75 to 250% | 0.1 to 1 µM | 250 to 500% | – | – | – | –

More lines, now with the values ahead:

activation at 1.54 µM (PKR(R510Q)) | AC50 (PKR(R510Q)) | Emax (PKR(R510Q); [1]) | activation at 1.54 µM (PKR(wt)) | AC50 (PKR(wt)) | Emax (PKR(wt)) | E - AC50 LUM KGP woFBP MAX % FOLD mean (PKR(R510Q); [1]) | activation at 1.54 µM (PKR(G332S)) | AC50 (PKR(G332S)) | Emax (PKR(G332S)) | SMILES
75 to 250% | 1 to 40 µM | 250 to 500% | – | – | – | – | – | – | – | COc1ccc(S(=O)(=O)N2CC3=C(CN(C(=O)CCO)C3)C2)cc1 [Example 40, 3-hydroxy-1-(5-((4-methoxyphenyl)sulfonyl)-3,4,5,6-tetrahydropyrrolo[3,4-c]pyrrol-2(1H)-yl)propan-1-one]
– | – | – | 250 to 500% | 0.1 to 1 µM | 250 to 500% | – | – | – | – | O=C(CCO)N1CC2=C(C1)CN(S(=O)(=O)c1ccc3occc3c1)C2 [Example 22, 1-(5-(benzofuran-5-ylsulfonyl)-3,4,5,6-tetrahydropyrrolo[3,4-c]pyrrol-2(1H)-yl)-3-hydroxypropan-1-one]
75 to 250% | 1 to 40 µM | – | 75 to 250% | 1 to 40 µM | 75 to 250% | ++ (>75% and ≤250% (++)) | – | – | – | O=C(C(CO)c1ccccn1)N1CC2=C(C1)CN(S(=O)(=O)c1cnc3c(c1)OCCO3)C2 (single isomer, unassigned) [Example 4, (S or R)-1-(5-((2,3-dihydro-[1,4]dioxino[2,3-b]pyridin-7-yl)sulfonyl)-3,4,5,6-tetrahydropyrrolo[3,4-c]pyrrol-2(1H)-yl)-3-hydroxy-2-(pyridin-2-yl)propan-1-one]
– | – | – | 250 to 500% | 0.1 to 1 µM | 250 to 500% | – | – | – | – | C[C@@H](O)CC(=O)N1CC2=C(C1)CN(S(=O)(=O)c1ccc3occc3c1)C2 [Example 23, (R)-1-(5-(benzofuran-5-ylsulfonyl)-3,4,5,6-tetrahydropyrrolo[3,4-c]pyrrol-2(1H)-yl)-3-hydroxybutan-1-one]
75 to 250% | ≤ 0.1 µM | 75 to 250% | – | – | – | – | 75 to 250% | > 40 µM | 75 to 250% | O=C(C(CO)c1ccccc1)N1CC2=C(C1)CN(S(=O)(=O)c1ccc3c(c1)OCCO3)C2 (stereo not shown) [Example 18, 1-(5-((2,3-dihydrobenzo[b][1,4]dioxin-6-yl)sulfonyl)-3,4,5,6-tetrahydropyrrolo[3,4-c]pyrrol-2(1H)-yl)-3-hydroxy-2-phenylpropan-1-one]
– | – | – | – | – | – | – | – | ≤ 0.1 µM | – | O=C(C(CO)c1ccccn1)N1CC2=C(C1)CN(S(=O)(=O)c1ccc(OC(F)F)cc1)C2 (single isomer, unassigned) [Example 42, (R or S)-1-(5-((4-(difluoromethoxy)phenyl)sulfonyl)-3,4,5,6-tetrahydropyrrolo[3,4-c]pyrrol-2(1H)-yl)-3-hydroxy-2-(pyridin-2-yl)propan-1-one]
– | – | – | 250 to 500% | ≤ 0.1 µM | 250 to 500% | – | – | – | – | O=C(C(CO)c1ccccc1)N1CC2=C(C1)CN(S(=O)(=O)c1ccc3occc3c1)C2 (stereo not shown) [Example 8, 1-(5-(benzofuran-5-ylsulfonyl)-3,4,5,6-tetrahydropyrrolo[3,4-c]pyrrol-2(1H)-yl)-3-hydroxy-2-phenylpropan-1-one]
75 to 250% | 1 to 40 µM | 250 to 500% | 75 to 250% | 1 to 40 µM | 250 to 500% | – | – | – | – | O=C(CCO)N1CC2=C(C1)CN(S(=O)(=O)c1ccc(OC(F)F)cc1)C2 [Example 54, 1-(5-((4-(difluoromethoxy)phenyl)sulfonyl)-3,4,5,6-tetrahydropyrrolo[3,4-c]pyrrol-2(1H)-yl)-3-hydroxypropan-1-one]
– | – | – | 75 to 250% | 0.1 to 1 µM | 250 to 500% | – | – | – | – | C[C@H](O)CC(=O)N1CC2=C(C1)CN(S(=O)(=O)c1ccc3occc3c1)C2 [Example 24, (S)-1-(5-(benzofuran-5-ylsulfonyl)-3,4,5,6-tetrahydropyrrolo[3,4-c]pyrrol-2(1H)-yl)-3-hydroxybutan-1-one]
